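Interpolation was linear, between the two tested concentrations surrounding the appropriate level; five concentrations were tested over 48 hours in 96-well plates. TGI marks complete inhibition of growth.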
Assays:
Test in all cases: NCI-60 cell line screen, 48 h
HCT-116 colon = tested on: HCT-116 colon
T-47D breast = tested on: T-47D breast
HL-60(TB) leukemia = tested on: HL-60(TB) leukemia
NCI-H23 lung = tested on: NCI-H23 lung
NCI-H226 lung = tested on: NCI-H226 lung
SF-295 CNS = tested on: SF-295 CNS
HCT-15 colon = tested on: HCT-15 colon
KM12 colon = tested on: KM12 colon
NCI/ADR-RES ovarian = tested on: NCI/ADR-RES ovarian
MDA-MB-435 = tested on: MDA-MB-435
CAKI-1 renal = tested on: CAKI-1 renal
MDA-N = tested on: MDA-N
RPMI-8226 leukemia = tested on: RPMI-8226 leukemia
786-0 renal = tested on: 786-0 renal
SK-MEL-5 melanoma = tested on: SK-MEL-5 melanoma
HCC-2998 colon = tested on: HCC-2998 colon
M14 melanoma = tested on: M14 melanoma
UACC-62 melanoma = tested on: UACC-62 melanoma
UACC-257 melanoma = tested on: UACC-257 melanoma
OVCAR-8 ovarian = tested on: OVCAR-8 ovarian
SK-MEL-2 melanoma = tested on: SK-MEL-2 melanoma
SNB-19 CNS = tested on: SNB-19 CNS
PC-3 prostate = tested on: PC-3 prostate
UO-31 renal = tested on: UO-31 renal
SW-620 colon = tested on: SW-620 colon
IGROV1 ovarian = tested on: IGROV1 ovarian
MALME-3M melanoma = tested on: MALME-3M melanoma
A498 renal = tested on: A498 renal
K-562 leukemia = tested on: K-562 leukemia
NCI-H522 lung = tested on: NCI-H522 lung
HS 578T breast = tested on: HS 578T breast
HOP-62 NSCLC = tested on: HOP-62 NSCLC
EKVX NSCLC = tested on: EKVX NSCLC
A549 NSCLC = tested on: A549 NSCLC
ACHN renal = tested on: ACHN renal
COLO 205 colon = tested on: COLO 205 colon
RXF 393 renal = tested on: RXF 393 renal
HT29 colon = tested on: HT29 colon
OVCAR-5 ovarian = tested on: OVCAR-5 ovarian
MOLT-4 leukemia = tested on: MOLT-4 leukemia
SK-OV-3 ovarian = tested on: SK-OV-3 ovarian
LOX IMVI melanoma = tested on: LOX IMVI melanoma
SR leukemia = tested on: SR leukemia
SNB-75 CNS = tested on: SNB-75 CNS
NCI-H460 lung = tested on: NCI-H460 lung
SK-MEL-28 melanoma = tested on: SK-MEL-28 melanoma
HOP-92 NSCLC = tested on: HOP-92 NSCLC
OVCAR-3 ovarian = tested on: OVCAR-3 ovarian
U251 CNS = tested on: U251 CNS
TK-10 renal = tested on: TK-10 renal
BT-549 breast = tested on: BT-549 breast
OVCAR-4 ovarian = tested on: OVCAR-4 ovarian
SN12C renal = tested on: SN12C renal
MDA-MB-231 breast = tested on: MDA-MB-231 breast
CCRF-CEM leukemia = tested on: CCRF-CEM leukemia
MCF7 breast = tested on: MCF7 breast
SF-539 CNS = tested on: SF-539 CNS
SF-268 CNS = tested on: SF-268 CNS
DU-145 prostate = tested on: DU-145 prostate

`COc1ccc(OC)c(CC2CCc3nc(N)nc(N)c3C2)c1` (stereo not given) was tested, and the TGI (HCT-116 colon) was > 100 µM, the TGI (T-47D breast) was > 68 µM and the TGI (HL-60(TB) leukemia) was > 100 µM. For the same compound, the TGI (NCI-H23 lung) was > 49.8 µM, the TGI (NCI-H226 lung) was > 49.4 µM and the TGI (SF-295 CNS) was 27.7 µM. For the same compound, the TGI (HCT-15 colon) was > 72.8 µM, the TGI (KM12 colon) was > 100 µM and the TGI (NCI/ADR-RES ovarian) was > 32.4 µM. The TGI (MDA-MB-435) was 54 µM, the TGI (CAKI-1 renal) was > 100 µM and the TGI (MDA-N) was 27.7 µM. The TGI (RPMI-8226 leukemia) was > 100 µM, the TGI (786-0 renal) was 4.46 µM and the TGI (SK-MEL-5 melanoma) was 28.9 µM. The TGI (HCC-2998 colon) was > 49.9 µM, the TGI (M14 melanoma) was 24.3 µM and the TGI (UACC-62 melanoma) was 25.8 µM. For the same compound, the TGI (UACC-257 melanoma) was 34.4 µM, the TGI (OVCAR-8 ovarian) was > 100 µM and the TGI (SK-MEL-2 melanoma) was 43.6 µM. The TGI (SNB-19 CNS) was > 81.8 µM, the TGI (PC-3 prostate) was 52.7 µM and the TGI (UO-31 renal) was > 75.4 µM. For the same compound, the TGI (SW-620 colon) was > 100 µM, the TGI (IGROV1 ovarian) was 28.1 µM and the TGI (MALME-3M melanoma) was 24.2 µM. For the same compound, the TGI (A498 renal) was 62 µM, the TGI (K-562 leukemia) was > 100 µM and the TGI (NCI-H522 lung) was 25 µM. For the same compound, the TGI (HS 578T breast) was > 70.8 µM, the TGI (HOP-62 NSCLC) was 24.4 µM and the TGI (EKVX NSCLC) was > 100 µM. For the same compound, the TGI (A549 NSCLC) was > 100 µM, the TGI (ACHN renal) was > 65.8 µM and the TGI (COLO 205 colon) was 29.2 µM. The TGI (RXF 393 renal) was 4.37 µM, the TGI (HT29 colon) was > 100 µM and the TGI (OVCAR-5 ovarian) was > 100 µM. For the same compound, the TGI (MOLT-4 leukemia) was > 100 µM, the TGI (SK-OV-3 ovarian) was > 100 µM and the TGI (LOX IMVI melanoma) was 25.6 µM. For the same compound, the TGI (SR leukemia) was > 69.8 µM, the TGI (SNB-75 CNS) was 27.2 µM and the TGI (NCI-H460 lung) was > 46 µM. For the same compound, the TGI (SK-MEL-28 melanoma) was > 92.5 µM, the TGI (HOP-92 NSCLC) was 77.4 µM and the TGI (OVCAR-3 ovarian) was > 100 µM. For the same compound, the TGI (U251 CNS) was > 100 µM, the TGI (TK-10 renal) was > 94 µM and the TGI (BT-549 breast) was 6.22 µM. For the same compound, the TGI (OVCAR-4 ovarian) was > 100 µM, the TGI (SN12C renal) was > 100 µM and the TGI (MDA-MB-231 breast) was > 100 µM. For the same compound, the TGI (CCRF-CEM leukemia) was > 100 µM, the TGI (MCF7 breast) was 32 µM and the TGI (SF-539 CNS) was 22.6 µM.
For `CCn1cc(C(=O)O)c(=O)c2cc3c(cc21)S(=O)(=O)CC3`, the TGI (HCT-116 colon) was > 100 µM, the TGI (T-47D breast) was > 100 µM and the TGI (HL-60(TB) leukemia) was > 100 µM. For the same compound, the TGI (NCI-H23 lung) was > 100 µM, the TGI (NCI-H226 lung) was > 100 µM and the TGI (SF-295 CNS) was > 100 µM. For the same compound, the TGI (HCT-15 colon) was > 100 µM, the TGI (KM12 colon) was > 100 µM and the TGI (NCI/ADR-RES ovarian) was > 100 µM. For the same compound, the TGI (MDA-MB-435) was > 100 µM, the TGI (CAKI-1 renal) was > 100 µM and the TGI (MDA-N) was > 100 µM. The TGI (RPMI-8226 leukemia) was > 100 µM, the TGI (786-0 renal) was > 100 µM and the TGI (SK-MEL-5 melanoma) was > 100 µM. The TGI (HCC-2998 colon) was > 100 µM, the TGI (M14 melanoma) was > 100 µM and the TGI (UACC-62 melanoma) was > 100 µM. The TGI (UACC-257 melanoma) was > 100 µM, the TGI (OVCAR-8 ovarian) was > 100 µM and the TGI (SK-MEL-2 melanoma) was > 100 µM. For the same compound, the TGI (SNB-19 CNS) was > 100 µM, the TGI (PC-3 prostate) was > 100 µM and the TGI (UO-31 renal) was > 100 µM. The TGI (SW-620 colon) was > 100 µM, the TGI (IGROV1 ovarian) was > 100 µM and the TGI (MALME-3M melanoma) was > 100 µM. The TGI (A498 renal) was > 100 µM, the TGI (K-562 leukemia) was > 100 µM and the TGI (NCI-H522 lung) was > 100 µM. The TGI (HS 578T breast) was > 100 µM, the TGI (HOP-62 NSCLC) was > 100 µM and the TGI (EKVX NSCLC) was > 100 µM. For the same compound, the TGI (A549 NSCLC) was > 100 µM, the TGI (ACHN renal) was > 100 µM and the TGI (COLO 205 colon) was > 100 µM. The TGI (RXF 393 renal) was > 100 µM, the TGI (HT29 colon) was > 100 µM and the TGI (OVCAR-5 ovarian) was > 100 µM. For the same compound, the TGI (MOLT-4 leukemia) was > 100 µM, the TGI (SK-OV-3 ovarian) was > 100 µM and the TGI (LOX IMVI melanoma) was > 100 µM. For the same compound, the TGI (SNB-75 CNS) was > 100 µM, the TGI (NCI-H460 lung) was > 100 µM and the TGI (SK-MEL-28 melanoma) was > 100 µM. For the same compound, the TGI (HOP-92 NSCLC) was > 100 µM, the TGI (OVCAR-3 ovarian) was > 100 µM and the TGI (U251 CNS) was > 100 µM. For the same compound, the TGI (SF-268 CNS) was > 100 µM, the TGI (TK-10 renal) was > 100 µM and the TGI (DU-145 prostate) was > 100 µM. The TGI (BT-549 breast) was > 100 µM, the TGI (OVCAR-4 ovarian) was > 100 µM and the TGI (SN12C renal) was > 100 µM. The TGI (MDA-MB-231 breast) was > 100 µM, the TGI (CCRF-CEM leukemia) was > 100 µM and the TGI (MCF7 breast) was > 100 µM. The TGI (SF-539 CNS) was > 100 µM.

Source: PubChem BioAssay (NCI)
